Assay [1] relates to Staphylococcus aureus. Description: microbe, parasite or virus in culture. As to conditions: ATCC 29213.
Description: Antibacterial activity against Staphylococcus aureus ATCC 29213 assessed as bacterial growth inhibition incubated for 16 to 18 hrs by broth microdilution method
Another assay concerns Klebsiella pneumoniae. The assay is described as follows: Antibacterial activity against Klebsiella pneumoniae BAA-1705 assessed as bacterial growth inhibition incubated for 16 to 18 hrs by broth microdilution method. The format is functional. Particulars: time 16-18 hrs.
A further assay concerns Enterococcus. The assay is described as follows: Antibacterial activity against Enterococcus NR 31884 assessed as bacterial growth inhibition incubated for 16 to 18 hrs by broth microdilution method. As to conditions: time 16-18 hrs. The assay is classed as functional.
Assay [2] has as its system Acinetobacter baumannii. Description: Antibacterial activity against Acinetobacter baumannii BAA 1605 assessed as bacterial growth inhibition incubated for 16 to 18 hrs by broth microdilution method. The format is functional. As to conditions: time 16-18 hrs.
For assay [3], the system named is Escherichia coli. Description: Antibacterial activity against Escherichia coli ATCC 25922 assessed as bacterial growth inhibition incubated for 16 to 18 hrs by broth microdilution method. The assay is classed as functional. As to conditions: time 16-18 hrs.
For the next assay, the system named is Pseudomonas aeruginosa. Description: Antibacterial activity against Pseudomonas aeruginosa ATCC 27853 assessed as bacterial growth inhibition incubated for 16 to 18 hrs by broth microdilution method. As to conditions: time 16-18 hrs. The assay is classed as functional.
Assay [4] has as its system Escherichia coli. Description: Antibacterial activity against Escherichia coli ATCC 25922 assessed as bacterial growth inhibition in presence of outermembrane permeabilizer, PMBN incubated for 16 to 18 hrs by broth microdilution method. The assay is classed as functional. Particulars: time 16-18 hrs.
Assay [5] deals with Acinetobacter baumannii. Description: Antibacterial activity against Acinetobacter baumannii BAA-1605 ssessed as bacterial growth inhibition in presence of outermembrane permeabilizer, PMBN incubated for 16 to 18 hrs by broth microdilution method. The assay is classed as functional. Particulars: time 16-18 hrs.
Assay [6] deals with Staphylococcus aureus. Description: Antibacterial activity against Staphylococcus aureus ATCC 29213 assessed as time for increase by 1 log10CFU at 10XMIC incubated for 1 hr followed by drug wash-out and measured every single 1 hr. The format is functional.
The subject of assay [7] is Staphylococcus aureus. Description: Antibacterial activity against Staphylococcus aureus ATCC 29213 assessed as time for increase by 1 log10CFU at 1XMIC incubated for 1 hr followed by drug wash-out and measured every single 1 hr. The assay is classed as functional.
Assay [8] concerns Staphylococcus aureus. The assay is described as follows: Antibacterial activity against Staphylococcus aureus ATCC 29213 assessed as time for post-antibiotic effect at 10XMIC incubated for 1 hr followed by drug wash-out and measured every single 1 hr. The format is functional.
In assay [9] the test system is Staphylococcus aureus. The assay is described as follows: Antibacterial activity against Staphylococcus aureus ATCC 29213 assessed as time for post-antibiotic effect at 1XMIC incubated for 1 hr followed by drug wash-out and measured every single 1 hr. The format is functional.
Assay [10] relates to Staphylococcus aureus. Description: Antibacterial activity against Staphylococcus aureus ATCC 29213 assessed as reduction in bacterial growth at sub-MIC incubated for 25 days. The format is functional, organism-based. Particulars: time 25.0 day.
Assay [11] deals with Staphylococcus aureus. The assay is described as follows: Bactericidal activity against Staphylococcus aureus ATCC 29213 assessed as reduction in bacterial load at 1X MIC preincubated for 6 hrs followed by subculturing on TSA plate for 18 to 20 hrs by time-kill assay. The format is functional. As to conditions: time 24-26 hrs.
Assay [12] has as its system Staphylococcus aureus. Description: Antibiofilm activity against Staphylococcus aureus ATCC 29213 assessed as reduction in preformed bacterial biofilm at 1XMIC incubated for 24 hrs by crystal violet staining based microtiter plate reader assay. The assay is classed as functional.
Assay [13] concerns Staphylococcus aureus. The assay is described as follows: Antibiofilm activity against Staphylococcus aureus ATCC 29213 assessed as reduction in preformed bacterial biofilm at 10XMIC incubated for 24 hrs by crystal violet staining based microtiter plate reader assay. The assay is classed as functional.
Assay [14] relates to Staphylococcus aureus. Description: Antibacterial activity against Staphylococcus aureus ATCC 29213 infected in mouse J774.A1 assessed as reduction in intracellular bacterial burden at 5XMIC incubated for 24 hrs followed by replating on TSA plate for 24 hrs by intracellular killing assay. As to conditions: time 48.0 hrs. The format is functional.

Values after ≈ are worked out from the molar mass of the structure shown. Active and inactive are the calls of the source. No cut-off for these calls is given here.

The results in this text go back to ChEMBL document CHEMBL4840338, “Cudraflavone C from Artocarpus hirsutus as a Promising Inhibitor of Pathogenic, Multidrug-Resistant S. aureus, Persisters, and Biofilms: A New Insight into a Rational Explanation of Traditional Wisdom” (J Nat Prod, 2021).

In the assay with Staphylococcus aureus [1], `CC(C)(O/N=C(\C(=O)N[C@@H]1C(=O)N2C(C(=O)[O-])=C(C[n+]3ccccc3)CS[C@H]12)c1csc(N)n1)C(=O)O` [CEFTAZIDIME] gave an MIC of 16 µg/mL (≈ 29.3 µM).

Take `Oc1cc(O)cc(/C=C/c2ccc(O)cc2O)c1` [OXYRESVERATROL]: the MIC in the assay with Klebsiella pneumoniae, in the assay on Staphylococcus aureus [1], in the assay on Enterococcus, in the assay with Acinetobacter baumannii [2], in the assay with Escherichia coli [3] and in the assay with Pseudomonas aeruginosa was greater than 64 µg/mL each time.

In the assay on Staphylococcus aureus [1], `CCCCCCCCCC(=O)N[C@@H](Cc1c[nH]c2ccccc12)C(=O)N[C@H](CC(N)=O)C(=O)N[C@@H](CC(=O)O)C(=O)N[C@@H]1C(=O)NCC(=O)N[C@@H](CCCN)C(=O)N[C@@H](CC(=O)O)C(=O)N[C@H](C)C(=O)N[C@@H](CC(=O)O)C(=O)NCC(=O)N[C@H](CO)C(=O)N[C@@H]([C@H](C)CC(=O)O)C(=O)N[C@@H](CC(=O)c2ccccc2N)C(=O)O[C@@H]1C` registered an MIC of 1 µg/mL (≈ 0.617 µM).

The molecule `C[C@@H](O)[C@H]1C(=O)N2C(C(=O)O)=C(S[C@@H]3CN[C@H](C(=O)N(C)C)C3)[C@H](C)[C@H]12` [MEROPENEM] showed an MIC in the assay with Staphylococcus aureus [1] of 1 µg/mL (≈ 2.61 µM).

Consider `CO[C@H]1/C=C/O[C@@]2(C)Oc3c(C)c(O)c4c(O)c(c(/C=N/N5CCN(C)CC5)c(O)c4c3C2=O)NC(=O)/C(C)=C\C=C\[C@H](C)[C@H](O)[C@@H](C)[C@@H](O)[C@@H](C)[C@H](OC(C)=O)[C@@H]1C` [RIFAMPIN], for which the MIC in the assay on Escherichia coli [4] worked out at 0.06 µg/mL; with Staphylococcus aureus [1] it was 0.0078 µg/mL (≈ 0.00948 µM); in the assay with Acinetobacter baumannii [5], 0.03 µg/mL; with Acinetobacter baumannii [2], 2 µg/mL (≈ 2.43 µM); in the assay on Escherichia coli [3] it was 8 µg/mL (≈ 9.72 µM).

On to `CC(C)=CC1Oc2cc(O)ccc2-c2oc3cc4c(c(O)c3c(=O)c21)C=CC(C)(C)O4` (stereo not drawn) [CUDRAFLAVONE A], for which the MIC in the assay on Klebsiella pneumoniae, with Staphylococcus aureus [1], with Enterococcus, in the assay with Acinetobacter baumannii [2], in the assay on Escherichia coli [3] and in the assay on Pseudomonas aeruginosa was greater than 64 µg/mL each time.

Consider `C[C@H]1COc2c(N3CCN(C)CC3)c(F)cc3c(=O)c(C(=O)O)cn1c23.C[C@H]1COc2c(N3CCN(C)CC3)c(F)cc3c(=O)c(C(=O)O)cn1c23.O` [LEVOFLOXACIN], for which the Time came to 3 h with Staphylococcus aureus [6], 2.5 h with Staphylococcus aureus [7], 1 h with Staphylococcus aureus [8] and 0.5 h in the assay with Staphylococcus aureus [9]. In addition, the MIC in the assay with Klebsiella pneumoniae came out at 64 µg/mL; against Staphylococcus aureus [1], 0.125 µg/mL; with Enterococcus, 0.25 µg/mL; in the assay on Pseudomonas aeruginosa, 0.5 µg/mL. Also, in the assay on Staphylococcus aureus [10], the result was inactive.

Turning to `CN(C)c1ccc(O)c2c1C[C@H]1C[C@H]3[C@H](N(C)C)C(O)=C(C(N)=O)C(=O)[C@@]3(O)C(O)=C1C2=O` [MINOCYCLINE], the MIC against Staphylococcus aureus [1] was 0.25 µg/mL (≈ 0.546 µM).

For the molecule `CN[C@H](CC(C)C)C(=O)N[C@H]1C(=O)N[C@@H](CC(N)=O)C(=O)N[C@H]2C(=O)N[C@H]3C(=O)N[C@H](C(=O)N[C@H](C(=O)O)c4cc(O)cc(O)c4-c4cc3ccc4O)[C@H](O)c3ccc(c(Cl)c3)Oc3cc2cc(c3O[C@@H]2O[C@H](CO)[C@@H](O)[C@H](O)[C@H]2O[C@H]2C[C@](C)(N)[C@H](O)[C@H](C)O2)Oc2ccc(cc2Cl)[C@H]1O` [VANCOMYCIN], the Activity in the assay on Staphylococcus aureus [11] came to 1 log10CFU/ml. Also, the Time in the assay with Staphylococcus aureus [6] is 3.5 h; in the assay on Staphylococcus aureus [7], 3 h; in the assay with Staphylococcus aureus [8], 1.5 h; in the assay on Staphylococcus aureus [9], 1 h. Besides, the MIC came to 128 µg/mL in the assay on Escherichia coli [4], 64 µg/mL in the assay with Acinetobacter baumannii [5], 256 µg/mL (≈ 177 µM) in the assay with Acinetobacter baumannii [2] and 512 µg/mL (≈ 353 µM) in the assay on Escherichia coli [3]. The result with Staphylococcus aureus [12] and in the assay on Staphylococcus aureus [14] was inactive. In addition, the “inhibition (INH)” value with Staphylococcus aureus [13] is 7.7%.

As to `COc1cc2oc3c(c(=O)c2c(O)c1/C=C/C(C)C)C(C=C(C)C)Oc1cc(O)ccc1-3` (stereo not drawn), the MIC with Klebsiella pneumoniae, in the assay on Staphylococcus aureus [1], in the assay with Enterococcus, in the assay with Acinetobacter baumannii [2], in the assay with Escherichia coli [3] and in the assay with Pseudomonas aeruginosa was greater than 64 µg/mL in each case.
